Experiment [1] has as its target T1, SARS-CoV-2 PLpro (nsp3 1564–1878) (Severe acute respiratory syndrome coronavirus 2, UniProt P0DTD1). The experiment in a line: biochemical. Set-up: FRET-quenched peptide (Pro3) cleavage by PLpro, 10 min pre-incubation, slope over 20 min, normalised to no-compound control. The conditions noted are these: read-out: % of control remaining.
For experiment [2], the target named is T1, SARS-CoV-2 PLpro (nsp3 1564–1878). The experiment in a line: biochemical. The conditions noted are these: read-out: % of control remaining. Details: FRET-quenched peptide (Pro3) cleavage by PLpro, 10 min pre-incubation, slope over 20 min, normalised to no-compound control. This is another data set of the same source.

Structures can show the parent of a compound that is named as a salt. Where two headings read alike, the source gives them in different places. Where a SMILES comes first, the peptide text is derived from it.

Take `CN1C(=O)[C@]23CC4=CC=C[C@H](O)[C@H]4N2C(=O)[C@@]1(CO)SS3` [Gliotoxin]: the remaining activity at 1.25 µM in experiment [1] (Well no.=3323, low concentration screen) came out at 94.1%. The remaining activity at 3.75 µM in experiment [2] (Well no.=3323, high concentration screen) was determined as 95.5%.
`Cc1cnc(C(=O)NCCc2ccc(S(=O)(=O)NC(=O)NC3CCCCC3)cc2)cn1` [Glipizide]: the remaining activity at 1.25 µM in experiment [1] (Well no.=700, low concentration screen) is 91.5%; in experiment [1] (Well no.=1605, low concentration screen), 96.2%. Also, the remaining activity at 3.75 µM in experiment [2] (Well no.=700, high concentration screen) is 94.3%; in experiment [2] (Well no.=1605, high concentration screen) it was 93%.
Take `COc1ccc2c(c1)C(=O)N(CCc1ccc(S(=O)(=O)NC(=O)NC3CCCCC3)cc1)C(=O)C2(C)C` [Gliquidone]: the remaining activity at 1.25 µM in experiment [1] (Well no.=5369, low concentration screen) worked out at 97.2%. In addition, the remaining activity at 3.75 µM in experiment [2] (Well no.=5369, high concentration screen) turned out to be 95.2%.
As to `N[C@@H](CCC(=O)N[C@@H](CS)C(=O)NCC(=O)O)C(=O)O` [Glutathione], the remaining activity at 1.25 µM in experiment [1] (Well no.=4049, low concentration screen) amounted to 99.4%. Further, in experiment [2] (Well no.=4049, high concentration screen), the remaining activity at 3.75 µM was 100%.
Turning to `COc1ccc(Cl)cc1C(=O)NCCc1ccc(S(=O)(=O)NC(=O)NC2CCCCC2)cc1` [Glyburide], the remaining activity at 1.25 µM in experiment [1] (Well no.=1806, low concentration screen) worked out at 96.5%. Further, the remaining activity at 3.75 µM in experiment [2] (Well no.=1806, high concentration screen) was determined as 97.3%.
On to `NCC(=O)O` [Glycine], for which the remaining activity at 1.25 µM in experiment [1] (Well no.=7699, low concentration screen) stood at 106%. In addition, in experiment [2] (Well no.=7699, high concentration screen), the remaining activity at 3.75 µM turned out to be 108%.
Turning to `COc1cc2c(=O)c(-c3ccc(O)cc3)coc2cc1O` [Glycitein], in experiment [1] (Well no.=6248, low concentration screen), the remaining activity at 1.25 µM was found to be 98.2%. In addition, in experiment [2] (Well no.=6248, high concentration screen), the remaining activity at 3.75 µM stood at 101%.
Take `C[C@H](CCC(=O)NCC(=O)O)[C@H]1CC[C@H]2[C@@H]3[C@H](O)C[C@@H]4C[C@H](O)CC[C@]4(C)[C@H]3CC[C@]12C` [Glycochenodeoxycholic acid]: the remaining activity at 1.25 µM turned out to be 105% in experiment [1] (Well no.=7020, low concentration screen) and 103% in experiment [1] (Well no.=7257, low concentration screen). In experiment [2] (Well no.=7020, high concentration screen), the remaining activity at 3.75 µM stood at 102%.
With `C[C@H](CCC(=O)NCC(=O)O)[C@H]1CC[C@H]2[C@@H]3[C@H](O)C[C@@H]4C[C@H](O)CC[C@]4(C)[C@H]3C[C@H](O)[C@]12C` [Glycocholic acid], the remaining activity at 1.25 µM in experiment [1] (Well no.=7068, low concentration screen) was found to be 106%; in experiment [1] (Well no.=7165, low concentration screen) it was 104%. The remaining activity at 3.75 µM in experiment [2] (Well no.=7068, high concentration screen) amounted to 105%; in experiment [2] (Well no.=7165, high concentration screen), 101%.
Turning to `O=C(O)CO` [Glycolic acid], in experiment [1] (Well no.=6981, low concentration screen), the remaining activity at 1.25 µM turned out to be 97.8%. For the same molecule, the remaining activity at 3.75 µM in experiment [2] (Well no.=6981, high concentration screen) came to 98.4%.
Turning to `C[N+]1(C)CCC(OC(=O)C(O)(c2ccccc2)C2CCCC2)C1` (stereo not drawn) [Glycopyrrolate], the remaining activity at 1.25 µM in experiment [1] (Well no.=7471, low concentration screen) was determined as 102%. Further, in experiment [2] (Well no.=7471, high concentration screen), the remaining activity at 3.75 µM came out at 103%.
Take `C[C@H](CCC(=O)NCC(=O)O)[C@H]1CC[C@H]2[C@@H]3[C@@H](O)C[C@@H]4C[C@H](O)CC[C@]4(C)[C@H]3CC[C@]12C` [Glycoursodeoxycholic acid]: the remaining activity at 1.25 µM in experiment [1] (Well no.=7311, low concentration screen) stood at 108%. The remaining activity at 3.75 µM in experiment [2] (Well no.=7311, high concentration screen) amounted to 106%.
For the molecule `NCC(=O)NCC(=O)O` [Glycylglycine] (H-Gly-Gly-OH), the remaining activity at 1.25 µM in experiment [1] (Well no.=6641, low concentration screen) turned out to be 100%. In addition, in experiment [2] (Well no.=6641, high concentration screen), the remaining activity at 3.75 µM was 102%.
For `CC1(C)[C@@H](O[C@H]2O[C@H](C(=O)O)[C@@H](O)[C@H](O)[C@H]2O[C@@H]2O[C@H](C(=O)O)[C@@H](O)[C@H](O)[C@H]2O)CC[C@]2(C)[C@H]3C(=O)C=C4[C@@H]5C[C@@](C)(C(=O)O)CC[C@]5(C)CC[C@@]4(C)[C@]3(C)CC[C@@H]12` [Glycyrrhizic acid], in experiment [1] (Well no.=5196, low concentration screen), the remaining activity at 1.25 µM was found to be 106%. In experiment [2] (Well no.=5196, high concentration screen), the remaining activity at 3.75 µM is 93.8%.
For the molecule `COc1cc2c(c(OC)c1OC)-c1c(cc3c(c1OC)OCO3)C[C@H](C)[C@](C)(O)C2` [Gomisin A], the remaining activity at 1.25 µM in experiment [1] (Well no.=5817, low concentration screen) was determined as 103%. In addition, in experiment [2] (Well no.=5817, high concentration screen), the remaining activity at 3.75 µM is 104%.
Take `CC(C)C[C@H](NC(=O)CNC(=O)[C@H](Cc1ccc(O)cc1)NC(=O)[C@H](CO)NC(=O)[C@H](Cc1c[nH]c2ccccc12)NC(=O)[C@H](Cc1cnc[nH]1)NC(=O)[C@@H]1CCC(=O)N1)C(=O)N[C@@H](CCCNC(=N)N)C(=O)N1CCC[C@H]1C(=O)NCC(N)=O` [Gonadorelin (acetate)]: the remaining activity at 1.25 µM in experiment [1] (Well no.=6276, low concentration screen) amounted to 104%. Besides, in experiment [2] (Well no.=6276, high concentration screen), the remaining activity at 3.75 µM was 106%.
Take `CC(C)C[C@H](NC(=O)[C@@H](COC(C)(C)C)NC(=O)[C@H](Cc1ccc(O)cc1)NC(=O)[C@H](CO)NC(=O)[C@H](Cc1c[nH]c2ccccc12)NC(=O)[C@H](Cc1cnc[nH]1)NC(=O)[C@@H]1CCC(=O)N1)C(=O)N[C@@H](CCCNC(=N)N)C(=O)N1CCC[C@H]1C(=O)NNC(N)=O` [Goserelin (acetate)]: the remaining activity at 1.25 µM in experiment [1] (Well no.=7338, low concentration screen) came out at 97.1%. The remaining activity at 3.75 µM in experiment [2] (Well no.=7338, high concentration screen) stood at 95%.
Regarding `CC(C)C[C@H](NC(=O)[C@@H](COC(C)(C)C)NC(=O)[C@H](Cc1ccc(O)cc1)NC(=O)[C@H](CO)NC(=O)[C@H](Cc1c[nH]c2ccccc12)NC(=O)[C@H](Cc1cnc[nH]1)NC(=O)[C@@H]1CCC(=O)N1)C(=O)N[C@@H](CCCNC(=N)N)C(=O)N1CCC[C@H]1C(=O)NNC(N)=O` [Goserelin], the remaining activity at 1.25 µM in experiment [1] (Well no.=1624, low concentration screen) was 98.9%. The remaining activity at 3.75 µM in experiment [2] (Well no.=1624, high concentration screen) was 101%.
On to `Cc1cc2c(C(C)C)c(O)c(O)c(C=O)c2c(O)c1-c1c(C)cc2c(C(C)C)c(O)c(O)c(C=O)c2c1O` [Gossypol], for which the remaining activity at 1.25 µM was 98.8% in experiment [1] (Well no.=3325, low concentration screen) and 102% in experiment [1] (Well no.=3953, low concentration screen). Moreover, the remaining activity at 3.75 µM in experiment [2] (Well no.=3325, high concentration screen) is 99.3%; in experiment [2] (Well no.=3953, high concentration screen), 98.4%.
Regarding `CN(C)Cc1c[nH]c2ccccc12` [Gramine], the remaining activity at 1.25 µM in experiment [1] (Well no.=3284, low concentration screen) amounted to 97.9%. Moreover, the remaining activity at 3.75 µM in experiment [2] (Well no.=3284, high concentration screen) was found to be 99.5%.
Consider `CN1[C@@H]2CCC[C@H]1C[C@@H](NC(=O)c1nn(C)c3ccccc13)C2` [Granisetron (Hydrochloride)], for which the remaining activity at 1.25 µM in experiment [1] (Well no.=6223, low concentration screen) was 104%. For the same molecule, the remaining activity at 3.75 µM in experiment [2] (Well no.=6223, high concentration screen) was found to be 102%.
On to `CN1[C@@H]2CCC[C@H]1C[C@@H](NC(=O)c1nn(C)c3ccccc13)C2` [Granisetron HCl], for which the remaining activity at 1.25 µM in experiment [1] (Well no.=5189, low concentration screen) was 99.3%. Besides, the remaining activity at 3.75 µM in experiment [2] (Well no.=5189, high concentration screen) came out at 97.5%.
With `CN1[C@@H]2CCC[C@H]1C[C@@H](NC(=O)c1nn(C)c3ccccc13)C2` [Granisetron], the remaining activity at 1.25 µM in experiment [1] (Well no.=1910, low concentration screen) is 93.3%. Further, the remaining activity at 3.75 µM in experiment [2] (Well no.=1910, high concentration screen) turned out to be 91.6%.
Regarding `CCc1nc2c(C)nc(C)cc2n1-c1ccc(CCNC(=O)NS(=O)(=O)c2ccc(C)cc2)cc1` [Grapiprant], the remaining activity at 1.25 µM in experiment [1] (Well no.=6998, low concentration screen) was found to be 97.1%. Besides, the remaining activity at 3.75 µM in experiment [2] (Well no.=6998, high concentration screen) stood at 95.9%.
For the molecule `Cn1c(-c2ccc3c(c2)OCO3)cc(=O)c2ccccc21` [Graveoline], the remaining activity at 1.25 µM in experiment [1] (Well no.=3147, low concentration screen) is 102%. In addition, in experiment [2] (Well no.=3147, high concentration screen), the remaining activity at 3.75 µM stood at 104%.
For `CC1(C)[C@@H](O)C[C@H]2[C@](C)(O)[C@@H]3CC[C@@H]4[C@@H](O)[C@@]3(C[C@@H](O)[C@@]21O)C[C@@]4(C)O` [Grayanotoxin III], the remaining activity at 1.25 µM in experiment [1] was 103%. The remaining activity at 3.75 µM in experiment [2] stood at 104%.
As to `COc1ccccc1O` [Guaiacol], the remaining activity at 1.25 µM in experiment [1] (Well no.=1626, low concentration screen) was determined as 96.8%. For the same molecule, in experiment [2] (Well no.=1626, high concentration screen), the remaining activity at 3.75 µM turned out to be 98.8%.
With `COc1ccccc1OCC(O)CO` (stereo not drawn) [Guaifenesin], the remaining activity at 1.25 µM in experiment [1] (Well no.=2180, low concentration screen) is 97.5%. Further, the remaining activity at 3.75 µM in experiment [2] (Well no.=2180, high concentration screen) was determined as 100%.

Source of the values: article PMC8286840, “Identifying SARS-CoV-2 antiviral compounds by screening for small molecule inhibitors of Nsp3 papain-like protease” (Biochemical Journal, 2021).
